One assay has as its system proteasome DUB activity. The arrangement: method as in PMID 25854145. The settings on record: in cells; read-out: in vivo IC50 for inhibition of proteasome DUB activity and induction of apoptosis; cited from earlier work.
The target of a further assay is T1, UCHL5 (Homo sapiens, UniProt Q9Y5K5).
T1 sequence (Q9Y5K5 1-329): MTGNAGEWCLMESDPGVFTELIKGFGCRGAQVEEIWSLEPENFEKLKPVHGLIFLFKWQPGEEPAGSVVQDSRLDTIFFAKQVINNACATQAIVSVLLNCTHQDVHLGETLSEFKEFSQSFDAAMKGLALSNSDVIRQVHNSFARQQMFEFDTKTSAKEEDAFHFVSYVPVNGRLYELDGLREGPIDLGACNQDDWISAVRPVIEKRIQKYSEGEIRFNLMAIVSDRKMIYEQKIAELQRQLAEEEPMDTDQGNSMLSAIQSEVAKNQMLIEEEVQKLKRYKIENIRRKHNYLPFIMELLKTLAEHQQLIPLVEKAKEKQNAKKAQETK
Kind of assay: SPR binding to recombinant UCHL5, NTA chip. The settings on record: protein from ProSpec, read-out: UCHL5(P) KD. From the text:
A BIACORE T200 was used for characterization of the interaction between compounds and USP14, UCHL5 and 26S proteasome. The standard BIACORE protocols were used for NTA chip (Ni/His-tag immobilization) and CM7 chip for compound interaction studies with slight modification described below. The x6 his-tagged USP14 and UCHL5 proteins were coupled to a Series S NTA BIACORE sensor chip in the BIACORE T200 using the his-tags for adherence of the proteins to the surface and an amine coupling procedure for covalent attachment to the chip surface. NTA chip was cleaned using three 500 μM EDTA injections followed by an injection of 500 μM Ni^2+ and activation of the chip surface with EDC/NHS injection according to BIACORE standard methods. Each chip has four separate areas, which were handled separately during the immobilization procedure. Area 1 was used as blank reference surface, area 2–4 was coupled with investigated recombinant proteins or complexes. Proteins were diluted in running buffer (10 mM HEPES, 150 mM NaCl, 0,005% Tween 20) to typically 10 μg/ml before injection(1 mL) over the prepared surfaces. […] The immobilization procedure was followed by injections of compound concentration series of VLX1570. […] Rmax and KD were calculated using Langmuir binding isotherms as provided in the Biacore software.

Assay [1] has as its system KMS-11 multiple myeloma cells. The format is in vivo. Conditions: 3 mg/kg intravenous, 10 days; SCID mice. On the procedure:
Two different multiple myeloma models were used. Experimental protocols and methods were performed by Accelera (Nerviano, Italy) in accordance with guidelines and with permission from the local ethics committee (Nerviano Medical Sciences (NMS) Ethic Committee). All experimental protocols were approved by the Nerviano Medical Sciences (NMS) Ethic Committee. Study director was Marina Ciomei. SCID female mice were obtained from Charles River, Italy. Body weights at the day of tumor implant were between 19 and 22 grams. Treatment started at day 7 after injection of tumor cells and continued for 10 consequtive days. Mice were monitored daily for mortality and clinical signs. In the KMS-11 model, antitumor efficacy was evaluated in terms of survival increase respect to control. In the RPMI8226 model, the growth of subcutaneous tumors was recorded. […] A gray-scale image of the mice was captured, followed by an overlay of a bioluminescence map representing the spatial distribution of photons detected from cleaved luciferin in the cancer cells expressing luciferase. Signal intensity was quantified using a customized version of the IGOR Pro version 4.09A Software (WaveMetrics, Inc., Lake Oswego, OR) called Living Image version 3.00 (Xenogen). Photon emission was measured as whole-body radiance and the individual regions of interest (ROIs) were manually selected. […]

The subject of a further assay is OPM-2. Kind of assay: MTT antiproliferative assay, OPM-2. The format is cell-based. The settings on record: Homo sapiens, 72 hours. On the procedure:
Cell viability was monitored by the MTT (3-(4,5-dimethylthiazol-2-yl)-2,5-diphenyltetrazolium bromide) assay. For the MTT assay, cells were suspended at 5 × 10^5 cells/ml, and 100 μl aliquots were dispended into 96-well microtiter plates and exposed to drugs as described using DMSO control. At the end of incubations, 10 μl of a stock solution of 5 mg/ml MTT (3-(4,5-dimethylthiazol-2-yl)-2,5-diphenyltetrazolium bromide), was added into each well, and the plates were incubated 4 hours at 37 °C. Formazan crystals were dissolved with 100 μl of 10% SDS/10 mM HCl solution overnight at 37 °C. Since MTT assays are affected by mitochondrial activity, and since OXPHOS is affected by VLX1570 (unpublished observation), we used the acid phosphatase method[49] to determine cell viability in some experiments. After washing twice with PBS, cells were lysed in 100 μl of 0.1 M sodium acetate, 0,1% Triton X-100, p-nitrophenylphosphate (Pierce Biotechnology Inc, Rockford, IL) and incubated for 90 min at 37 °C. At the end of the incubation, 10 μl NaOH was added to each well and A405 was determined.
In general terms: Tetrazolium dyes change colour on reduction, which living cells bring about.

In the next assay the target is USP14 (Homo sapiens, UniProt P54578). Kind of assay: HA-Ub-VS active-site labeling of purified 19S, USP14. The format is biochemical. More on the design: purchased Boston Biochem E-366. The settings on record: purified 19S RP; 2.5 μM. Here is the method:
Cell extract proteins were resolved by Tris-Acetate PAGE gels (Invitrogen, Carlsbad, CA) and transferred onto a polyvinylidene difluoride (PVDF) membrane for western blotting. For Ub-VS labeling, we lysed cell pellets from control or treated cells with buffer (50 mM HEPES pH 7.4, 250 mM sucrose, 10 mM MgCl2, 2 mM ATP, 1 mM DTT and 1%NP-40) on ice for 30 min and removed debris by centrifugation. We labeled 25 μg of protein with 1 μM Ub-VS for 30 min at 37 °C. We resolved samples by SDS-PAGE and performed immunoblotting. For HA-Ub-VS labeling, we pretreated purified 19S (5 nM) with DMSO or 2.5, 5, 10, 15 or 25μM 1570 for 10 min at room temperature, which followed with labeling with 1 μM HA-Ub-VS for 30 min at 37 °C and immunoblotting.

Some results are limits rather than exact numbers.

For orientation: IC50 means the point on the concentration scale where inhibition reaches its midpoint. A word on the Kd: it is a measure of binding affinity in units of concentration.

For the compound `C=CC(=O)N1CC/C(=C\c2ccc(F)c([N+](=O)[O-])c2)C(=O)/C(=C/c2ccc(F)c([N+](=O)[O-])c2)C1` [VLX1570], the concentration for half-maximal inhibition (IC50) with proteasome DUB activity is less than 1000 nM; in the assay with OPM-2, 126 ± 3 nM. For the same compound, the Kd at UCHL5 turned out to be 14000 nM. Further, in assay [1], the “survival of the animals” value is “increased the survival”. In addition, on USP14, the “inhibition of USP14 activity (Ub-VS labeling)” value was “strongly inhibited”.

The values above are taken from publication PMC4893612 (Scientific Reports, 2016).
